According to paper PMC8617031, “Development of a BCL-xL and BCL-2 dual degrader with improved anti-leukemic activity,” (Nature Communications, 2021):
Where “and” joins values, the source holds several entries; their conditions need not be identical. Identical values can stand only once. Like-named read-outs stand apart in the source and are kept apart here.

Tests used:
His-tagged BCL-2 = target: T1, His-tagged BCL-2 (Homo sapiens, UniProt P10415); experiment: AlphaScreen competitive binary binding, BCL-2 (biotin-BIM peptide); conditions: BCL-2 Rep-2, plate row K, 1.90735e-5 uM
T1 construct: purchased Sigma-Aldrich SRP0186
Method: The reagents were diluted in a buffer containing 250 mM HEPES pH 7.5, 1 M NaCl, 1% BSA, and 0.05% Tween-80. His-tagged BCL-xL (0.5 nM, Cat. No. SRP0187, Sigma-Aldrich) or BCL-2 (1 nM, Cat. No. SRP0186, Sigma-Aldrich) were incubated with serial diluted 753a or 753b and 2 nM biotin-tagged BAD (biotin-[…] amino-terminal, AnaSpec, for BCL-xL) or 10 nM BIM peptides (biotin-[…] N-terminal, AnaSpec, for BCL-2) to a final volume of 40 µl in a 96-well PCR plate. […] After incubation for 2 h, 5 µl 6× His-acceptor beads (Cat. No. AL128M, PerkinElmer) were added to each well at 20 µg/ml final concentration and incubated for 1 h. Then 5 µl streptavidin-donor beads were added (Cat. No. 6760002, PerkinElmer) to each well at 20 µg/ml final concentration and incubated for 45 min. At the end of the incubation period, 17 µl of each sample was transferred in adjacent wells of 384-well proxy plate (Cat. No. 6008280, PerkinElmer). The plate was scanned using the Alpha program on Biotek’s Synergy Neo2 multimode plate reader. The inhibition constant (Ki) was calculated using the non-linear regression, one site, competitive binding, Fit Ki function on GraphPad Prism 9 software, based on experimentally determined dissociation constant (Kd) for each protein–peptide pair.

Kasumi-1 cells = experiment: Viability (MTS) of Kasumi-1 AML cells; assay type: cell-based, human; conditions: for viability at 0.0411523 µM / viability at 0.37037 µM / viability at 1.11111 µM / viability at 3.33333 µM / viability at 10 µM / viability at […] / IC50: Homo sapiens; for viability at 0.0411523 µM: Kasumi 1, Concentration 0.0411523 uM; for viability at 0.0411523 µM / viability at 0.37037 µM / viability at 1.11111 µM / viability at 3.33333 µM / viability at 10 µM / viability at […]: Supplementary Fig. 12b; for viability at 0.37037 µM: Kasumi 1, Concentration 0.37037 uM; for viability at 1.11111 µM: Kasumi 1, Concentration 1.11111 uM; for viability at 3.33333 µM: Kasumi 1, Concentration 3.33333 uM; for viability at 10 µM: Kasumi 1, Concentration 10 uM; for viability at […]: Kasumi 1, Concentration […]; for IC50: Kasumi 1, 72 h
Hela cells = experiment: Viability (MTS) of Hela cells; assay type: cell-based, human; conditions: in % (unit assumed)
Method: Suspension cells were treated 30 min after seeding, whereas adherent cells were allowed to adhere overnight and were then treated. Compound treatments were prepared in complete cell culture medium and 100 µl of 2× treatment-containing medium were added to each well. Complete cell culture medium without treatment was added in control wells, and wells containing medium without cells served as background. The outer wells of the 96-well plate were not used for treatment and were filled with 250 µl of PBS to reduce evaporation of medium from inner wells. Each compound and/or combination was tested at nine different concentrations with three replicates. The cell viability was measured after 72 h by tetrazolium-based MTS assay. MTS reagent (2 mg ml^–1 stock; cat. no. G1111, Promega) was freshly supplemented with phenazine methosulfate (PMS, 0.92 mg ml^–1 stock, cat. no. P9625, Sigma-Aldrich) in 20:1 ratio, and 20 µl of this mixture was added to each control and treatment well. The cells were incubated for 4 h at 37 °C and 5% CO2, and then the absorbance was recorded at 490 nm using Biotek’s Synergy Neo2 multimode plate reader (Biotek). The average absorbance value of background wells was subtracted from absorbance value of each control and treatment well, and percent cell viability ((At/A0) × 100)) was determined in each treatment well, where At is the absorbance value of the treatment well and A0 is the average absorbance value of control wells after background subtraction. The data were expressed as average percentage cell viability and fitted in non-linear regression curves using GraphPad Prism 7 (GraphPad Software, La Jolla, CA, USA).

[1] = Average of 3 wells, read-out: MTS viability, percent of 0 uM control, Average
[2] = single well, read-out: MTS viability, corrected absorbance 490 as percent of 0 uM control

T1 sequence (P10415 whole entry): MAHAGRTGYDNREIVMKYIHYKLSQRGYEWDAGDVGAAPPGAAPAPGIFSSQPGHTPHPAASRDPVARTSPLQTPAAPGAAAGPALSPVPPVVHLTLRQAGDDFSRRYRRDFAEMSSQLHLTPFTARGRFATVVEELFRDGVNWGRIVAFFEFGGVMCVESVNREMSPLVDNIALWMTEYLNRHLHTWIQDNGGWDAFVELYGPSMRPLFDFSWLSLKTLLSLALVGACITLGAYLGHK

**Q.** What does the source list for CC1(C)CCC(c2ccc(Cl)cc2)=C(CN2CCN(c3ccc(C(=O)NS(=O)(=O)c4ccc(N[C@H](CCN5CCOCC5)CSc5ccccc5)c(S(=O)(=O)C(F)(F)F)c4)cc3)CC2)C1 [ABT263, navitoclax]?
**A.** Alpha signal (raw counts) (His-tagged BCL-2): 598210 and 675191; Luminescence (raw plate reading) (Kasumi-1 cells; 3.90625 nM (plate column 2), Fig. 7a): 652130 and 630259 and 658966 and 744397; Luminescence (raw plate reading) (Kasumi-1 cells; 7.8125 nM (plate column 3), Fig. 7a): 632892 and 633903 and 634701 and 712997; Luminescence (raw plate reading) (Kasumi-1 cells; 15.625 nM (plate column 4), Fig. 7a): 642408 and 622919 and 622003 and 704279; Luminescence (raw plate reading) (Kasumi-1 cells; 31.25 nM (plate column 5), Fig. 7a): 622577 and 612176 and 601421 and 652847; Luminescence (raw plate reading) (Kasumi-1 cells; 62.5 nM (plate column 6), Fig. 7a): 542999 and 553178 and 531814 and 597127; Luminescence (raw plate reading) (Kasumi-1 cells; 125 nM (plate column 7), Fig. 7a): 381320 and 423693 and 412676 and 432347; Luminescence (raw plate reading) (Kasumi-1 cells; 250 nM (plate column 8), Fig. 7a): 247450 and 230935 and 221189 and 256346; Luminescence (raw plate reading) (Kasumi-1 cells; 500 nM (plate column 9), Fig. 7a): 119937 and 119731 and 112901 and 107498; Luminescence (raw plate reading) (Kasumi-1 cells; 1000 nM (plate column 10), Fig. 7a): 56843 and 48094 and 45547 and 41795; Luminescence (raw plate reading) (Kasumi-1 cells; 2000 nM = 2U (plate column 11), Fig. 7a): 20891 and 18712 and 20895 and 17813; Luminescence (raw plate reading) (Kasumi-1 cells; 4000 nM = 4U (plate column 12), Fig. 7a): 11066 and 13361 and 10294 and 10997; Luminescence normalised to mean of the 0 concentration wells (= 100), viability (Kasumi-1 cells; 3.90625 (nM), Fig. 7a): 95.2795 and 92.0841 and 96.2783 and 108.76; Luminescence normalised to mean of the 0 concentration wells (= 100), viability (Kasumi-1 cells; 7.8125 (nM), Fig. 7a): 92.4688 and 92.6165 and 92.7331 and 104.173; Luminescence normalised to mean of the 0 concentration wells (= 100), viability (Kasumi-1 cells; 15.625 (nM), Fig. 7a): 93.8591 and 91.0117 and 90.8778 and 102.899; Luminescence normalised to mean of the 0 concentration wells (= 100), viability (Kasumi-1 cells; 31.25 (nM), Fig. 7a): 90.9617 and 89.442 and 87.8707 and 95.3843; Luminescence normalised to mean of the 0 concentration wells (= 100), viability (Kasumi-1 cells; 62.5 (nM), Fig. 7a): 79.3349 and 80.8221 and 77.7007 and 87.2433; Luminescence normalised to mean of the 0 concentration wells (= 100), viability (Kasumi-1 cells; 125 (nM), Fig. 7a): 55.7128 and 61.9037 and 60.2941 and 63.1681; Luminescence normalised to mean of the 0 concentration wells (= 100), viability (Kasumi-1 cells; 250 (nM), Fig. 7a): 36.1537 and 33.7408 and 32.3168 and 37.4535; Luminescence normalised to mean of the 0 concentration wells (= 100), viability (Kasumi-1 cells; 500 (nM), Fig. 7a): 17.5234 and 17.4933 and 16.4954 and 15.706; Luminescence normalised to mean of the 0 concentration wells (= 100), viability (Kasumi-1 cells; 1000 (nM), Fig. 7a): 8.305 and 7.027 and 6.655 and 6.106; Luminescence normalised to mean of the 0 concentration wells (= 100), viability (Kasumi-1 cells; 2000 (nM, 2U), Fig. 7a): 3.052 and 2.734 and 3.053 and 2.603; Luminescence normalised to mean of the 0 concentration wells (= 100), viability (Kasumi-1 cells; 4000 (nM, 4U), Fig. 7a): 1.6168 and 1.952 and 1.504 and 1.607; viability at 0.0411523 µM (Kasumi-1 cells; [1]): 92.4%; viability at 0.0411523 µM (Kasumi-1 cells; [2]): 91%; viability at 0.37037 µM (Kasumi-1 cells; [1]): 20.7%; viability at 0.37037 µM (Kasumi-1 cells; [2]): 21.4%; viability at 1.11111 µM (Kasumi-1 cells; [1]): 18%; viability at 1.11111 µM (Kasumi-1 cells; [2]): 16.5%; viability at 3.33333 µM (Kasumi-1 cells; [1]): 13.1%; viability at 3.33333 µM (Kasumi-1 cells; [2]): 13.4%; viability at 10 µM (Kasumi-1 cells; [1]): 12.1%; viability at 10 µM (Kasumi-1 cells; [2]): 12.3%; viability at […] (Kasumi-1 cells; [1]): 78.8%; viability at […] (Kasumi-1 cells; [2]): 78.2%; IC50 (Kasumi-1 cells; Fig. 7a, read-out: IC50, viability of Kasumi-1 AML cells): 156 nM; IC50 (Kasumi-1 cells; Fig. 7c, read-out: IC50, viability of Kasumi-1 cells): 131 nM; cell viability normalised to control wells (single replicate) (Hela cells; MTS absorbance 490, Conc 0.00137174 uM): 109.176 and 100.419; cell viability normalised to control wells (single replicate) (Hela cells; MTS absorbance 490, Conc 0.00411523 uM): 94.0029 and 98.8584; cell viability normalised to control wells (single replicate) (Hela cells; MTS absorbance 490, Conc 0.037037 uM): 90.3613 and 97.2977; cell viability normalised to control wells (single replicate) (Hela cells; MTS absorbance 490, Conc 0.111111 uM): 79.4364 and 85.7659 and 104.581; cell viability normalised to control wells (single replicate) (Hela cells; MTS absorbance 490, Conc 0.333333 uM): 80.9971 and 79.263; cell viability normalised to control wells (single replicate) (Hela cells; MTS absorbance 490, Conc 1 uM): 85.9393 and 80.3035; cell viability normalised to control wells (single replicate) (Hela cells; MTS absorbance 490, Conc 3 uM): 78.7428 and 78.4827
